The structures appear in SMILES notation.

A word on the IC50: it is the point on the concentration scale where inhibition reaches its midpoint.

Chain of Axl (P30530 26-894): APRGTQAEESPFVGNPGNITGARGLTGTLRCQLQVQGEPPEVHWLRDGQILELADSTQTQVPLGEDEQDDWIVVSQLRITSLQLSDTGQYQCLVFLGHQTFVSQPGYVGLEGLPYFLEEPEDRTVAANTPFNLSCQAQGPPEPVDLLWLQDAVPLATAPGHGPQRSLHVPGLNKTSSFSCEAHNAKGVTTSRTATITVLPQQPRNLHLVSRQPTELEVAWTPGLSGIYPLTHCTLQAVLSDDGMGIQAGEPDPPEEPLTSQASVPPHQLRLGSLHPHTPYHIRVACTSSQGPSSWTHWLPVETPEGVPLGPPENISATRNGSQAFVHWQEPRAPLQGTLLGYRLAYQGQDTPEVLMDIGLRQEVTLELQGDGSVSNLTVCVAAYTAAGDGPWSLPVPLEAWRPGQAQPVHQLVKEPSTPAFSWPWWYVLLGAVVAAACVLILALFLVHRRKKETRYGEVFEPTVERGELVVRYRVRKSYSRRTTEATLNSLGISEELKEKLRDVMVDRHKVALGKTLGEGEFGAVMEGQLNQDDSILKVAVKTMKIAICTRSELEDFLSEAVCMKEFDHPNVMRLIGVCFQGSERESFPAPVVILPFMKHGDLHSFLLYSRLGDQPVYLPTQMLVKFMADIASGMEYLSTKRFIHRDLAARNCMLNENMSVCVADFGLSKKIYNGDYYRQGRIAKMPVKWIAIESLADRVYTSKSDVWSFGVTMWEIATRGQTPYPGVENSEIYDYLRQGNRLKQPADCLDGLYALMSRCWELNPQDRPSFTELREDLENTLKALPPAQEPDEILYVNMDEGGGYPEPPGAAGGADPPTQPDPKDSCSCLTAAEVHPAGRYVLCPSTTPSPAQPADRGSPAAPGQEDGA

One assay deals with Axl (Homo sapiens (Human), UniProt P30530). The assay is described as follows: Phospho-Akt in-cell Western assay (Axl-antibody cross-linking stimulation). Format: cell-based. Conditions: inhibition of Axl activity, Hela cells, phospho-Akt readout; Table 5, formula (Ia3). The method, boiled down:
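HeLa cells on poly-L-lysine, starved 24 hrs with Axl/Fc, pre-treated with compound 1 hr at 37° C., then stimulated 5 min with Axl primary/secondary antibody cluster. Fixed cells probed for phospho-Akt by chemiluminescent in-cell Western; signal normalized to crystal violet cell number.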
Take `COc1cc2ncnc(-n3nc(Nc4ccc(C(=O)N5CCN(C6CCCC6)CC5)cc4)nc3N)c2cc1OC` [Compound 206, 1-(6,7-dimethoxyquinazolin-4-yl)-N^3-(4-(4-(cyclopentyl)piperazin-1-ylcarbonyl)phenyl)-1H-1,2,4-triazole-3,5-diamine]: the IC50 is less than 1000 nM.

With `Cc1csc2c(-n3nc(Nc4ccc(C(=O)N5CCN(C6CCCC6)CC5)cc4)nc3N)ncnc12` [Compound 207, 1-(7-methylthieno[3,2-d]pyrimidin-4-yl)-N^3-(4-(4-(cyclopentyl)piperazin-1-ylcarbonyl)phenyl)-1H-1,2,4-triazole-3,5-diamine], the concentration for half-maximal inhibition (IC50) was less than 1000 nM.

As for `Cc1csc2c(-n3nc(Nc4ccc(C(=O)NCCN5CCCC5)cc4)nc3N)nc(Cl)nc12` [Compound 208, 1-(7-methyl-2-chlorothieno[3,2-d]pyrimidin-4-yl)-N^3-(4-((2-(pyrrolidin-1-yl)ethyl)aminocarbonyl)phenyl)-1H-1,2,4-triazole-3,5-diamine], the half-inhibitory concentration (IC50) was less than 1000 nM.

In turn, `COc1cc2ncnc(-n3nc(Nc4ccc(N5CCC(N6CCCCC6)CC5)c(F)c4)nc3N)c2cc1OC` [Compound 209, 1-(6,7-dimethoxyquinazolin-4-yl)-N^3-(3-fluoro-4-(4-piperidin-1-ylpiperidin-1-yl)phenyl)-1H-1,2,4-triazole-3,5-diamine] yielded a concentration for half-maximal inhibition (IC50) of less than 1000 nM.

As to `Cc1csc2c(-n3nc(Nc4ccc(N5CCC(N6CCCCC6)CC5)c(F)c4)nc3N)nc(Cl)nc12` [Compound 210, 1-(7-methyl-2-chlorothieno[3,2-d]pyrimidin-4-yl)-N^3-(3-fluoro-4-(4-piperidin-1-ylpiperidin-1-yl)phenyl)-1H-1,2,4-triazole-3,5-diamine], the IC50 is less than 1000 nM.

In turn, `CCN(CC)C1CCN(c2ccc(Nc3nc(N)n(-c4nc(Cl)nc5c(C)csc45)n3)cc2F)C1` (stereo not drawn) [Compound 211, 1-(7-methyl-2-chlorothieno[3,2-d]pyrimidin-4-yl)-N^3-(3-fluoro-4-(3-diethylaminopyrrolidin-1-yl)phenyl)-1H-1,2,4-triazole-3,5-diamine] had an IC50 of less than 1000 nM.

The compound `CN1CCC(c2ccc(Nc3nc(N)n(-c4nc5ccccc5c5ccccc45)n3)cc2)CC1` [Compound 213, 1-(phenanthridin-6-yl)-N^3-(4-(1-methylpiperidin-4-yl)phenyl)-1H-1,2,4-triazole-3,5-diamine] had an IC50 of less than 1000 nM.

As to `Cc1cc(Nc2nc(N)n(-c3nc4ccccc4c4ccccc34)n2)ccc1N1CCC(N2CCCC2)CC1` [Compound 214, 1-(phenanthridin-6-yl)-N^3-(3-methyl-4-(4-pyrrolidin-1-ylpiperidin-1-yl)phenyl)-1H-1,2,4-triazole-3,5-diamine], the IC50 is less than 1000 nM.

Regarding `COc1cc2ncnc(-n3nc(Nc4ccc(N5Cc6ccccc6C5)c(F)c4)nc3N)c2cc1OC` [Compound 216, 1-(6,7-dimethoxyquinazolin-4-yl)-N^3-(3-fluoro-4-(isoindolin-2-yl)phenyl)-1H-1,2,4-triazole-3,5-diamine], the half-maximal inhibitory concentration (IC50) is greater than 20000 nM.

`CC(C)c1ccc(-n2nc(Nc3ccc(N4CCOCC4)cc3)nc2N)cc1` [Compound 218, 1-(4-isopropylphenyl)-N^3-(4-morpholinophenyl)-1H-1,2,4-triazole-3,5-diamine] returned an IC50 greater than 20000 nM.

Staying with this assay, now noted: inhibition of Axl activity, Hela cells, phospho-Akt readout; Table 7, formula (Ia4).
`Cc1csc2c(-n3nc(Nc4ccc5c(c4)CCC(N4CCCC4)CC5)nc3N)nc(Cl)nc12` (stereo not drawn) [Compound 219, 1-(7-methyl-2-chlorothieno[3,2-d]pyrimidin-4-yl)-N^3-(7-pyrrolidin-1-yl-6,7,8,9-tetrahydro-5H-benzo[7]annulene-2-yl)-1H-1,2,4-triazole-3,5-diamine]: the IC50 is less than 1000 nM.

As for `COc1cc2ncnc(-n3nc(Nc4ccc5c(c4)CCC(N4CCCC4)CC5)nc3N)c2cc1OC` (stereo not drawn) [Compound 220, 1-(6,7-dimethoxy-quinazolin-4-yl)-N^3-(7-pyrrolidin-1-yl-6,7,8,9-tetrahydro-5H-benzo[7]annulene-2-yl)-1H-1,2,4-triazole-3,5-diamine], the IC50 was less than 1000 nM.

On to `Cc1csc2c(-n3nc(Nc4ccc5c(c4)CCC(N(C)C4CC6CCC4C6)CC5)nc3N)nc(Cl)nc12` (stereo not drawn) [Compound 221, 1-(7-methyl-2-chlorothieno[3,2-d]pyrimidin-4-yl)-N^3-(7-(N-methyl-N-bicyclo[2.2.1]heptan-2-yl)amino-6,7,8,9-tetrahydro-5H-benzo[7]annulene-2-yl)-1H-1,2,4-triazole-3,5-diamine], for which the 50% inhibitory concentration (IC50) is less than 1000 nM.

As to `Cc1csc2c(-n3nc(Nc4ccc5c(c4)CCC(NC4CC6CCC4C6)CC5)nc3N)nc(Cl)nc12` (stereo not drawn) [Compound 222, 1-(7-methyl-2-chlorothieno[3,2-d]pyrimidin-4-yl)-N^3-(7-(N-bicyclo[2.2.1]heptan-2-yl)amino-6,7,8,9-tetrahydro-5H-benzo[7]annulene-2-yl)-1H-1,2,4-triazole-3,5-diamine], the IC50 was less than 1000 nM.

Turning to `COc1cc2ncnc(-n3nc(Nc4ccc5c(c4)CCC(NC4CC6CCC4C6)CC5)nc3N)c2cc1OC` (stereo not drawn) [Compound 223, 1-(6,7-dimethoxyquinazolin-4-yl)-N^3-(7-(N-bicyclo[2.2.1]heptan-2-yl)amino-6,7,8,9-tetrahydro-5H-benzo[7]annulene-2-yl)-1H-1,2,4-triazole-3,5-diamine], the half-maximal inhibitory concentration (IC50) was less than 1000 nM.

Take `COc1cc2ncnc(-n3nc(Nc4ccc5c(c4)CCC(N(C)C4CC6CCC4C6)CC5)nc3N)c2cc1OC` (stereo not drawn) [Compound 224, 1-(6,7-dimethoxy-quinazolin-4-yl)-N^3-(7-(N-methyl-N-bicyclo[2.2.1]heptan-2-yl)amino-6,7,8,9-tetrahydro-5H-benzo[7]annulene-2-yl)-1H-1,2,4-triazole-3,5-diamine]: the half-inhibitory concentration (IC50) was less than 1000 nM.

Staying with this assay, now noted: inhibition of Axl activity, phospho-Akt in-cell Western assay.
For the compound `Cc1cc(Nc2nc(N)n(-c3nnc(C)c4ccsc34)n2)ccc1N1CCN(C2CC3CCC2C3)CC1` (stereo not drawn) [Compound 217, 1-(4-methylthieno[3,2-d]pyridazin-7-yl)-N^3-(3-methyl-4-(4-(bicyclo[2.2.1]heptan-2-yl)-piperazin-1-yl)phenyl)-1H-1,2,4-triazole-3,5-diamine], the 50% inhibitory concentration (IC50) was less than 1000 nM.

`Cc1cc(Nc2nc(N)n(-c3nc(Cl)nc4c(C)csc34)n2)ccc1N1CCN(C2CC3CCC2C3)CC1` (stereo not drawn) [Compound 225, 1-(7-methyl-2-chlorothieno[3,2-d]pyrimidin-4-yl)-N^3-(3-methyl-4-(4-(bicyclo[2.2.1]heptan-2-yl)piperazin-1-yl)phenyl)-1H-1,2,4-triazole-3,5-diamine]: the IC50 is less than 1000 nM.

As to `Cc1nnc(-n2nc(Nc3ccc(N4CCN([C@H]5C[C@@H]6CC[C@H]5C6)CC4)c(F)c3)nc2N)c2sccc12` [Compound 226, 1-(4-methylthieno[3,2-d]pyridazin-7-yl)-N^3-(3-fluoro-4-(4-((1S,2S,4R)-bicyclo[2.2.1]heptan-2-yl)piperazin-1-yl)phenyl)-1H-1,2,4-triazole-3,5-diamine], the half-maximal inhibitory concentration (IC50) was less than 1000 nM.

The compound `COc1ccc2nc(Cl)c(-n3nc(Nc4ccc(N5CCN([C@H]6C[C@@H]7CC[C@H]6C7)CC5)c(F)c4)nc3N)nc2c1` [Compound 227, 1-(2-chloro-6-methoxy-quinoxalin-3-yl)-N^3-(3-fluoro-4-(4-((1S,2S,4R)-bicyclo[2.2.1]heptan-2-yl)piperazin-1-yl)phenyl)-1H-1,2,4-triazole-3,5-diamine] had an IC50 of 1000 to 10000 nM.

In the case of `COc1cc2c(C)nnc(-n3nc(Nc4ccc(N5CCN([C@H]6C[C@@H]7CC[C@H]6C7)CC5)c(F)c4)nc3N)c2cc1OC` [Compound 228, 1-(6,7-dimethoxy-1-methylphthalazin-4-yl)-N^3-(3-fluoro-4-(4-((1S,2S,4R)-bicyclo[2.2.1]heptan-2-yl)piperazin-1-yl)phenyl)-1H-1,2,4-triazole-3,5-diamine], the half-maximal inhibitory concentration (IC50) is greater than 20000 nM.

Take `Nc1nc(Nc2ccc(N3CCN([C@H]4C[C@@H]5CC[C@H]4C5)CC3)c(F)c2)nn1-c1ccc(-c2ccccc2)nn1` [Compound 229, 1-(6-phenylpyridazin-3-yl)-N^3-(3-fluoro-4-(4-((1S,2S,4R)-bicyclo[2.2.1]heptan-2-yl)piperazin-1-yl)phenyl)-1H-1,2,4-triazole-3,5-diamine]: the half-inhibitory concentration (IC50) was 1000 to 10000 nM.

On to `Nc1nc(Nc2ccc(N3CCN([C@H]4CC5CCC4C5)CC3)c(F)c2)nn1-c1cc(-c2ccccc2)ccn1` (stereo partly drawn) [Compound 230, 1-(4-phenylpyridin-2-yl)-N^3-(3-fluoro-4-(4-((2S)-bicyclo[2.2.1]heptan-2-yl)piperazin-1-yl)phenyl)-1H-1,2,4-triazole-3,5-diamine], for which the IC50 fell in the range of 1000 to 10000 nM.

In turn, `Cc1nnc(-n2nc(Nc3ccc(N4CCN([C@H]5CC6CCC5C6)CC4)c(Cl)c3)nc2N)c2sccc12` (stereo partly drawn) [Compound 231, 1-(4-methylthieno[3,2-d]pyridazin-7-yl)-N^3-(3-chloro-4-(4-((2)S-bicyclo[2.2.1]heptan-2-yl)piperazin-1-yl)phenyl)-1H-1,2,4-triazole-3,5-diamine] displayed a half-inhibitory concentration (IC50) of less than 1000 nM.

For `Cc1cc(Nc2nc(N)n(-c3nnc(C)c4ccsc34)n2)ccc1N1CCN([C@H]2C[C@@H]3CC[C@H]2C3)CC1` [Compound 232, 1-(4-methylthieno[3,2-d]pyridazin-7-yl)-N^3-(3-methyl-4-(4-((1S,2S,4R)-bicyclo[2.2.1]heptan-2-yl)piperazin-1-yl)phenyl)-1H-1,2,4-triazole-3,5-diamine], the concentration for half-maximal inhibition (IC50) is less than 1000 nM.

In the case of `Cc1cccc(-c2nc(-n3nc(Nc4ccc(N5CCN(C6CC7CCC6C7)CC5)cc4)nc3N)c3scc(C)c3n2)c1` (stereo not drawn) [Compound 233, 1-(7-methyl-2-m-tolylthieno[3,2-d]pyrimidin-4-yl)-N^3-(4-(4-(bicyclo[2.2.1]heptan-2-yl)piperazin-1-yl)phenyl)-1H-1,2,4-triazole-3,5-diamine], the half-maximal inhibitory concentration (IC50) was greater than 20000 nM.

Consider `Cc1csc2c(-n3nc(Nc4ccc(N5CCN(C6CC7CCC6C7)CC5)cc4)nc3N)nc(-c3cccc(C#N)c3)nc12` (stereo not drawn) [Compound 234, 1-(7-methyl-2-(3-cyanophenyl)thieno[3,2-d]pyrimidin-4-yl)-N^3-(4-(4-(bicyclo[2.2.1]heptan-2-yl)piperazin-1-yl)phenyl)-1H-1,2,4-triazole-3,5-diamine], for which the 50% inhibitory concentration (IC50) is less than 1000 nM.

(Values after patent publication US10166216B2 (Rigel Pharmaceuticals, Inc., priority 2006, dated 2019).)
